How the values were obtained:
[1] = tested on: IRF3 related genes in brain cortical tissue; test: DMXAA-induced IRF-related gene expression in mouse brain cortex; assay type: in vivo
Experimental: FIG. 7A is a bar graph depicting DMXAA-induced induction of IRF-related gene expression in mice. […] RNA was extracted and qtPCR was performed with indicated primers. Data is depicted as mRNA fold-change versus vehicle. Values depicted are group means+/−SEM; n=4 per group.
(§1) Total RNA isolated from brain cortex, or RNA from cell culture, was reverse transcribed using an Omniscript Reverse Transcription kit (Qiagen). Quantitative PCR was performed using the TaqMan Gene Expression Assays (Applied Biosystems) on an ABI-prism 7700. Results were normalized to β-actin expression and analyzed relative to appropriate controls. The relative quantification of the gene of interest was determined using the comparative CT method (2^−ΔΔCt)
Values depicted are group means+/−SEM; n=4 per group.

Neuro2a cells = test: Gene induction in Neuro2a cells (qtPCR); assay type: cell-based, mouse; conditions: 10 ug/ml, 3 hours, compared to 5′pppRNA
Experimental: (§2) RNA was collected from cell pellets and qtPCR was performed with indicated primers. Data is depicted as mRNA fold-change versus vehicle. Values are normalized to actin and are presented as fold change over vehicle control.
as §1
(§3) Since inflammatory pathways mediated by NF-κB are known to have negative effects on stroke outcome, the induction of key detrimental genes including TNF and IL-6 in response to drug treatment was evaluated. […] RNA was collected from cell pellets and qtPCR was performed with indicated primers. Values are normalized to actin and are presented as fold change over vehicle control.

BV2 cells = test: Gene induction in BV2 cells (qtPCR); assay type: cell-based, mouse; conditions: 10 ug/ml, 3 hours, compared to 5′pppRNA
Experimental: as §2, §1, §3

cerebral ischemic injury = test: Middle cerebral artery occlusion (MCAO), infarct volume; assay type: in vivo, mouse; conditions: 60 minute MCAO, 24 hours
Experimental: Mice were anesthetized and subjected to middle cerebral artery occlusion (MCAO) using the monofilament suture method. Briefly, a silicone-coated 7-0 monofilament nylon surgical suture was threaded through the external carotid artery to the internal carotid artery to block the middle cerebral artery; […] The suture was then removed to restore blood flow. Mice undergoing ischemic preconditioning followed by injurious ischemia were rested in their home cage for 72 h before receiving the second MCAO (45 min). Cerebral blood flow (CBF) was monitored throughout surgery by laser Doppler flowmetry. The mean CBF value between groups was consistent for each experiment. […] Body temperature was monitored and maintained at 37° C. with a thermostat-controlled heating pad.
Mouse brain was sliced into 7×1 mm coronal sections before 2,3,5-triphenyltetrazolium chloride TTC staining, and the volume of infarct was determined by summing of the area of infarct from individual slices. The infarct size for each image was determined using NIH image analyses. […]
IRFs are master regulators of innate immune receptors, constituting a family of DNA-binding proteins expressed in a variety of tissues. […] Infarct volume was measured 24 hours after surgery. […] Specifically, gene transcription was measured in the brain 24 hours post MCAO in LPS preconditioned wildtype, IRF3 deficient, and IRF7 deficient mice using quantitative PCR. […]

THP1-Dual cells = test: THP1-Dual cytotoxicity (Cell Titer Glo, ATP); assay type: cell-based, human; conditions: Human Reporter Cell Line THP1; read-out: Thp1 cytotox CC50
Method in brief: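 CC50, the concentration killing half the cells, was derived from ATP-dependent CellTiter-Glo luminescence. Cells were THP1-Dual (human) and compound was tested as an 8-point dose-response series, with viability read in the same plate.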

[2] = 10 mg/kg IP, brain tissue at 3 hours

Row | Structure (SMILES) | IRF3 related gene expression in brain [1, 2] | induction of pro-inflammatory genes TNF in brain [1, 2] | IRF-mediated gene induction in the brain ([1]; 5-fold lower dose (2 mg/kg IP), 3 hours, compared to vehicle) | induction of IRF-regulated genes RSAD2 and IFIT1 (Neuro2a cells) | induction of IRF-regulated genes RSAD2 and IFIT1 (BV2 cells) | protection against ischemic injury in mice lacking IRF3 (cerebral ischemic injury; IRF3 KO mice, 250 μg IP) | reduction in ischemic injury (infarct volume) compared to controls (cerebral ischemic injury; wild-type mice, 250 μg IP at onset of reperfusion) [fold] | CC50 (THP1-Dual cells) [µM]
1 | Cc1ccc2c(=O)c3cccc(CC(=O)O)c3oc2c1C [DMXAA, 5,6-dimethylxanthenone-4-acetic acid] | significant increase | minimal induction | minimal increase | most robust induction | most robust induction | not protected | 2 | 
2 | COc1ccc(C(=O)Nc2cc(-c3nc4ccccc4s3)ccc2C)cc1[N+](=O)[O-] [ND-38] |  |  |  |  |  |  |  | 44.9

Reference: US20220395500A1, “SMALL MOLECULE ACTIVATORS OF INTERFERON REGULATORY FACTOR 3 AND METHODS OF USE THEREOF” (Neuralexo, Inc., priority 2020, published 2022)
